According to the supplement of paper PMC12463676, “Small-molecule dissolution of stress granules by redox modulation benefits ALS models” (Nature Chemical Biology, 2025):

Columns and labels:
lipoamide = compound: NC(=O)CCCCC1CCSS1 [lipoamide]; assay: thermal stability z-score vs DMSO; higher = more thermally stabilized by treatment; conditions: HeLa, lipoamide concentration 100 µM
Procedure: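 Cellular thermal proteome profiling in HeLa cells. Cells were treated with 100 µM lipoamide for 1 h, with or without 1 mM arsenate for a further 1 h, then heated to ten temperatures (37-66.3 °C), and soluble protein was quantified by TMT mass spectrometry relative to 0.1% DMSO controls. The thermal stability score (sum of log2 fold changes minus the abundance score) was transformed to a z-score; mean of n = 3 experiments.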

potassium arsenate = compound: O=[As]([O-])(O)O.[K+] [potassium arsenate]; assay: as above; conditions: HeLa; arsenate concentration 1 mM
Procedure: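 Cellular thermal proteome profiling in HeLa cells treated with 1 mM arsenate for 1 h (DMSO pretreatment), heated to ten temperatures (37-66.3 °C). Soluble protein was quantified by TMT mass spectrometry relative to DMSO controls; the thermal stability score was transformed to a z-score; mean of n = 3 experiments.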

[1] = arsenate co-treatment: 1 mM arsenate 1 h
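Further: each temperature applied for 3 min, abundance score taken as mean log2 fold change at the two lowest temperatures, z-score obtained by mean subtraction and division by SD.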

Chain of UniProt Q8TEY7 (Q8TEY7 whole entry): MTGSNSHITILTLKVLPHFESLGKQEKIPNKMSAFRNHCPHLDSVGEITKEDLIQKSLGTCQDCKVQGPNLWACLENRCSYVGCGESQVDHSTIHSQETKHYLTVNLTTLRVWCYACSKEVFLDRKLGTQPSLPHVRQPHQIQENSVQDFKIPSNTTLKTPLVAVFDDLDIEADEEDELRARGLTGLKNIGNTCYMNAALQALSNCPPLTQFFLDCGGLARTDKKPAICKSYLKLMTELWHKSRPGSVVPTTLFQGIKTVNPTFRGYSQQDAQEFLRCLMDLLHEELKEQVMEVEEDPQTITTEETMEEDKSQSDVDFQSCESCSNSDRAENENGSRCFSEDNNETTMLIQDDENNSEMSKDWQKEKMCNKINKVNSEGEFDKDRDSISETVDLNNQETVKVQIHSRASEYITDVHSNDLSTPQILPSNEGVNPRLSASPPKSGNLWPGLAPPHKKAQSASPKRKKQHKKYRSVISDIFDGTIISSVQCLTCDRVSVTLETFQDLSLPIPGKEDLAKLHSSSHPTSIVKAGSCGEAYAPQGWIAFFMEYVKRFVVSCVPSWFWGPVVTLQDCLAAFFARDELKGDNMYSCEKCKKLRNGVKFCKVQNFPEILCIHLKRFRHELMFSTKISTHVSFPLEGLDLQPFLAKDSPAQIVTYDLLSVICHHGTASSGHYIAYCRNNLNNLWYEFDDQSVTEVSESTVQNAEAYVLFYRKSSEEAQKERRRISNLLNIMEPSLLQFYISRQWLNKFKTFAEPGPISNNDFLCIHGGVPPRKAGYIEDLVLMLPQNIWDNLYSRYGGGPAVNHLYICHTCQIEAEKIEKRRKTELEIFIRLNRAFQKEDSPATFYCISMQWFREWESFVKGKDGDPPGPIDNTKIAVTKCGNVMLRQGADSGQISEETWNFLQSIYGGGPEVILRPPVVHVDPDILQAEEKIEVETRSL
Chain of UniProt P14635 (P14635 whole entry): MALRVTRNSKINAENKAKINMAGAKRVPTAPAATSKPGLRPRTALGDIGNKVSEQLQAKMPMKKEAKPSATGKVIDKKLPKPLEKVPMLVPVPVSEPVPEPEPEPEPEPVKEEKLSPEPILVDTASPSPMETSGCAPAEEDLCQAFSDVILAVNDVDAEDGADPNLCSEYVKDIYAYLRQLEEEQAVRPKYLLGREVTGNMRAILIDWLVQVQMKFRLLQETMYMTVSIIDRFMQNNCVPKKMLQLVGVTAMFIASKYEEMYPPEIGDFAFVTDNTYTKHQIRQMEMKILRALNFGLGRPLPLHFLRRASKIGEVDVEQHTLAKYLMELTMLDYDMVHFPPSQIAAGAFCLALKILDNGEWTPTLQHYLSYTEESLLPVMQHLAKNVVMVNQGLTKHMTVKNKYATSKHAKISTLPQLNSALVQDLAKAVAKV
Chain of UniProt P80217 (P80217 whole entry): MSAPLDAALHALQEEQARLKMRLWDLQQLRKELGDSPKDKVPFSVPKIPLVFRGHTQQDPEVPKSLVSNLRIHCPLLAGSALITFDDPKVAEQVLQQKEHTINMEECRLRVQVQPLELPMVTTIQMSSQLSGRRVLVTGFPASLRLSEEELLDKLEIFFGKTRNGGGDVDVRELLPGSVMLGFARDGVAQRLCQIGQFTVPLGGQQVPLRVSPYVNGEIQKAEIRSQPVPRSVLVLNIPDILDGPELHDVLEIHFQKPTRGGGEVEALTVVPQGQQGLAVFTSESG
Chain of UniProt P30711 (P30711 whole entry): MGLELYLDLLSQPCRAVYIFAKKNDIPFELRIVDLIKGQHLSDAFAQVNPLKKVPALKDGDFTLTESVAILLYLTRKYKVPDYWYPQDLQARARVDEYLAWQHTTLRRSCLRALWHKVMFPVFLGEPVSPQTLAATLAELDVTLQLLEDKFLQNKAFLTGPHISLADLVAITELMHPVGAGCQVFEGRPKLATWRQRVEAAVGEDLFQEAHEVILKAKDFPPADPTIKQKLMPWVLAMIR
Chain of UniProt O95777 (O95777 whole entry): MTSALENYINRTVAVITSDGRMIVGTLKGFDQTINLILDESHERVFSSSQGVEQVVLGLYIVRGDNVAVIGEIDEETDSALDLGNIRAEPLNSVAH
Chain of UniProt O14777 (O14777 whole entry): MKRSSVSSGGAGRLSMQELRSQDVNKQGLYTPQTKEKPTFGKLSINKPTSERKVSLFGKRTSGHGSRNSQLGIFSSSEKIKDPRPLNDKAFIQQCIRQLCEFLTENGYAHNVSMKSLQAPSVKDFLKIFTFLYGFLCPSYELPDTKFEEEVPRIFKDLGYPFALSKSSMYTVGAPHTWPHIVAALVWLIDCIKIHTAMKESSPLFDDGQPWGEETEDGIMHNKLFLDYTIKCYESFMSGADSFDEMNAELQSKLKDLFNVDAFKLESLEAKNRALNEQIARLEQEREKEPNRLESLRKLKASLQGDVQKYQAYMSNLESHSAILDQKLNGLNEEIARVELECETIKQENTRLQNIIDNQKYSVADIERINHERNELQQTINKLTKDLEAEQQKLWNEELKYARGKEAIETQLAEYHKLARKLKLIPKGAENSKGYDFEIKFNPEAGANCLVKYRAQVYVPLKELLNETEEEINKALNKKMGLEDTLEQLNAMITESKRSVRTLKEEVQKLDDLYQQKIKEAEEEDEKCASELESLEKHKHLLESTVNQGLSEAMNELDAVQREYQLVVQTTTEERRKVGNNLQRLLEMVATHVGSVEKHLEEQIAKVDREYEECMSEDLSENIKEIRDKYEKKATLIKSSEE
Chain of UniProt Q12797 (Q12797 whole entry): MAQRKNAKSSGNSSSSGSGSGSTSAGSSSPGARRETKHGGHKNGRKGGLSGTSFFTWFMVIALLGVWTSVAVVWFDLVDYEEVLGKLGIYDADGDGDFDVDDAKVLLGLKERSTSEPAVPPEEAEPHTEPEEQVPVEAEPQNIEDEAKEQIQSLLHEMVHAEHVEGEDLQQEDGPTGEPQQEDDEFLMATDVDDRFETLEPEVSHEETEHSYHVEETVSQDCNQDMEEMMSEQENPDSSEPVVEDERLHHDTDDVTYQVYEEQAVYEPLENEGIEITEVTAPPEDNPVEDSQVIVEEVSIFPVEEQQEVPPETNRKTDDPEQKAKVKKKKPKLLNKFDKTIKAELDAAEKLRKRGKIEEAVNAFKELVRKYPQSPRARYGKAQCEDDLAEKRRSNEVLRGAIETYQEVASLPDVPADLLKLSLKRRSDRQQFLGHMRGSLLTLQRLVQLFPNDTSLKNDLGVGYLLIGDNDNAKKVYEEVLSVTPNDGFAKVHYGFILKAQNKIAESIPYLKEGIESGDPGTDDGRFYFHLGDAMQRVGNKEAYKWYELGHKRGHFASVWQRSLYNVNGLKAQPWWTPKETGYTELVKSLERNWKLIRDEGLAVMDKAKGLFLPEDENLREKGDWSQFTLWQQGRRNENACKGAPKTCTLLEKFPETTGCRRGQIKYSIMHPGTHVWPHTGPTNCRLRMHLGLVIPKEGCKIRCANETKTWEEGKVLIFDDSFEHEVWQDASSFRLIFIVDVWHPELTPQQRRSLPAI
Chain of UniProt Q9NQH7 (Q9NQH7 whole entry, looked up): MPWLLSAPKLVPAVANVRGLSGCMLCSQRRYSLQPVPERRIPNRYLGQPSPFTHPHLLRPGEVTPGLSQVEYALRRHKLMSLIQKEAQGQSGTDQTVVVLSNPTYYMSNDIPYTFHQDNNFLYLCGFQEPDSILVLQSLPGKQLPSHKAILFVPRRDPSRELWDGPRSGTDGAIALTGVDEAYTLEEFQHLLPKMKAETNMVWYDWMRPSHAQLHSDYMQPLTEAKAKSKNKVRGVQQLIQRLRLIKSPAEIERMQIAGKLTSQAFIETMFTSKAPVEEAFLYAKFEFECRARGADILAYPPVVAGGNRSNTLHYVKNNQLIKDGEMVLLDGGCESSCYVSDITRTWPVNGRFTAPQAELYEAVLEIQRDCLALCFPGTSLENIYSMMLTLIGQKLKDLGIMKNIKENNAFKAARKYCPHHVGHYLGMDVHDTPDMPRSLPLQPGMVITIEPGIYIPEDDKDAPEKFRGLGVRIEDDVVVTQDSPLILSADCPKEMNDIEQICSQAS
Chain of UniProt P30405 (P30405 whole entry): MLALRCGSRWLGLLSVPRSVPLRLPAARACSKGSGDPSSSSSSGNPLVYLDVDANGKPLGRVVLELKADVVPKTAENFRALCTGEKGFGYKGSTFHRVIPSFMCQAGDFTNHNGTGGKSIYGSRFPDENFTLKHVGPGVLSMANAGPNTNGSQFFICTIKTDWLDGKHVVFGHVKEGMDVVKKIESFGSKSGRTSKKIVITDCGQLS
Chain of UniProt Q9UM00 (Q9UM00 whole entry): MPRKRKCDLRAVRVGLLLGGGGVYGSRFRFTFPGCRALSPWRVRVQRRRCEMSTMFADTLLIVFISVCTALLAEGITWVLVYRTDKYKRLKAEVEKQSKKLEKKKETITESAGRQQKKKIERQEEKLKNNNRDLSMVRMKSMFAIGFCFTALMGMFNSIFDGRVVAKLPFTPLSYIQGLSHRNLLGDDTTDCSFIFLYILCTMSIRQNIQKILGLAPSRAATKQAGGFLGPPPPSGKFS
Chain of UniProt Q9UKY7 (Q9UKY7 whole entry): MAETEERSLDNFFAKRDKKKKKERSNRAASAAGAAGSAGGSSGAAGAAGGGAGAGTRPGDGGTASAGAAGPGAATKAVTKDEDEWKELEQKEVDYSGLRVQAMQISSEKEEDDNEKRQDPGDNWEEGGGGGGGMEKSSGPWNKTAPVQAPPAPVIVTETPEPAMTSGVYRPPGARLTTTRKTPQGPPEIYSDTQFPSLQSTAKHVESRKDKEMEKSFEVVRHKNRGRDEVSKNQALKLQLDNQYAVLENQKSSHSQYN
Chain of UniProt P08758 (P08758 whole entry): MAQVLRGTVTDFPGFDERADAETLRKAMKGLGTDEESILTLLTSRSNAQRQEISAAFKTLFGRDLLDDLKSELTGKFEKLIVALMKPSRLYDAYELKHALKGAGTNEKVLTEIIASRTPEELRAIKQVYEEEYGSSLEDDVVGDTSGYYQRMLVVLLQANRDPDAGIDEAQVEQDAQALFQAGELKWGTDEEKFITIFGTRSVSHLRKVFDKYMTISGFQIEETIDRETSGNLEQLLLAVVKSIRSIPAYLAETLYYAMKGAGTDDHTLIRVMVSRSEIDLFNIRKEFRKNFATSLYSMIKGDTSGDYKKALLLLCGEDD

Target | thermal stability z-score (lipoamide; [1]) | thermal stability z-score (lipoamide; arsenate co-treatment: none) | thermal stability z-score (potassium arsenate)
ACBD5 (UniProt Q5T8D3) | -1.5 | -0.737 | 0.243
MELK (UniProt Q14680) | -0.0697 | -0.0146 | -0.32
GSTT1 (UniProt P30711) | 1.07 | 0.0783 | -0.279
CHSY1 (UniProt Q86X52) | -0.212 | -0.333 | -0.171
LSM8 (UniProt O95777) | 1.17 | 0.47 | -0.214
NDC80 (UniProt O14777) | -0.361 | 0.254 | 1.71
SLC29A1 (UniProt Q99808) | 0.272 | 0.818 | 0.277
PFKFB2 (UniProt O60825) | 0.137 | 0.1 | -0.631
ELMO2 (UniProt Q96JJ3) | -0.114 | 0.245 | 0.457
CDK7 (UniProt P50613) | -0.000906 | -0.0377 | -0.0106
PPIF (UniProt P30405) | 0.26 | 0.29 | 0.0382
IFI35 (UniProt P80217) | 1.36 | 0.774 | 2.08
PMPCA (UniProt Q10713) | -0.137 | -0.112 | 0.0736
RAB35 (UniProt Q15286) | -0.564 | 0.0595 | -0.435
SLC17A5 (UniProt Q9NRA2) | 0.265 | 0.076 | -0.982
LSM1 (UniProt O15116) | 1.6 | 2.05 | 0.83
MSI2 (UniProt Q96DH6) | 0.43 | 0.136 | 0.082
SLC1A4 (UniProt P43007) | -0.807 | -0.485 | -0.588
SPC25 (UniProt Q9HBM1) | 0.989 | -0.483 | 0.191
BIRC6 (UniProt Q9NR09) | -0.51 | -0.149 | 0.194
GALNT1 (UniProt Q10472) | -0.568 | -0.256 | -0.187
HDAC7 (UniProt Q8WUI4) | 0.158 | -0.253 | -0.534
POLR1D | -0.0835 | -0.377 | -1.73
BLOC1S5 (UniProt Q8TDH9) | 0.19 | 0.0962 | 0.446

Target | thermal stability z-score (lipoamide; [1]) | thermal stability z-score (lipoamide; arsenate co-treatment: none) | thermal stability z-score (potassium arsenate)
SLC9A3R1 (UniProt O14745) | 0.348 | 0.362 | -0.36
YME1L1 (UniProt Q96TA2) | -0.813 | -0.425 | -0.298
NUP205 (UniProt Q92621) | -0.769 | -0.572 | 1.05
PSMB3 (UniProt P49720) | 1.04 | 0.994 | 0.157
RBM47 | 0.133 | -0.661 | -0.629
SNX12 (UniProt Q9UMY4) | -0.128 | -0.00318 | 0.108
MAN1B1 (UniProt Q9UKM7) | -0.361 | -0.286 | 0.103
RTF1 (UniProt Q92541) | 0.13 | 0.0546 | -0.323
SLC27A4 (UniProt Q6P1M0) | -0.824 | -0.358 | -0.197
CFAP20 (UniProt Q9Y6A4) | 0.686 | -0.433 | 1.07
COX5A (UniProt P20674) | 2.24 | 1.82 | 1.36
CDV3 (UniProt Q9UKY7) | 0.669 | 0.83 | 0.683
TSEN54 (UniProt Q7Z6J9) | -0.815 | 0.162 | 0.795
COMMD1 (UniProt Q8N668) | 0.0519 | 0.0285 | -0.333
CCNB1 (UniProt P14635) | 0.729 | 0.477 | 1.43
MIF4GD (UniProt A9UHW6) | 0.658 | 0.0749 | -0.165
MTO1 (UniProt Q9Y2Z2) | 0.544 | 0.263 | 1.97
U2SURP (UniProt O15042) | 0.962 | 0.428 | 0.507
KRR1 (UniProt Q13601) | -0.00732 | 0.0711 | -0.512
FBXL18 (UniProt Q96ME1) | 0.241 | 0.119 | -0.711
USP33 (UniProt Q8TEY7) | -0.155 | -0.011 | 1.21
SOWAHC (UniProt Q53LP3) | 0.277 | 0.343 | 0.0878
ANXA5 (UniProt P08758) | 1.34 | 1.22 | 0.601
PNISR (UniProt Q8TF01) | 1.06 | 0.149 | -0.509

Target | thermal stability z-score (lipoamide; [1]) | thermal stability z-score (lipoamide; arsenate co-treatment: none) | thermal stability z-score (potassium arsenate)
XPNPEP3 (UniProt Q9NQH7) | -0.37 | 0.018 | -0.646
RPL35 (UniProt P42766) | 0.579 | 0.674 | -0.812
ASMTL (UniProt O95671) | 1.09 | 1.31 | -0.959
TMCO1 (UniProt Q9UM00) | 0.0581 | 0.305 | -0.687
PPP6C (UniProt O00743) | 0.512 | 0.089 | -0.409
TLE3 (UniProt Q04726) | 0.171 | 0.329 | -0.674
GALNT7 (UniProt Q86SF2) | 0.205 | -0.0334 | 0.187
TMEM87A (UniProt Q8NBN3) | 0.451 | 0.36 | 0.645
SLC25A24 (UniProt Q6NUK1) | -0.0911 | -0.127 | 0.205
DNAAF2 (UniProt Q9NVR5) | -0.15 | -0.168 | -0.268
MPI (UniProt P34949) | -0.333 | -0.379 | 0.187
UBE4A (UniProt Q14139) | -0.217 | -0.148 | 0.86
BRF1 (UniProt Q92994) | -0.0333 | -0.111 | 0.035
BCL3 (UniProt P20749) | -0.234 | 0.114 | -0.0259
IFT74 (UniProt Q96LB3) | -0.121 | -0.049 | -0.115
ELP4 (UniProt Q96EB1) | -0.492 | 0.609 | 0.742
ASPH (UniProt Q12797) | -2.27 | -2.04 | 0.014
C1QTNF6 (UniProt Q9BXI9) | -0.0299 | 0.334 | 0.794
G3BP2 (UniProt Q9UN86) | -0.0281 | -0.411 | 0.561
EBNA1BP2 (UniProt Q99848) | 0.29 | -0.281 | 0.463
NPLOC4 (UniProt Q8TAT6) | -0.0676 | 0.0243 | -0.0761
CD58 (UniProt P19256) | 0.0858 | 0.705 | 0.484
GTPBP6 (UniProt O43824) | 0.0509 | -0.133 | 0.043
TFAP4 (UniProt Q01664) | 0.339 | 0.809 | 1.02
